Measured values: ChEMBL document CHEMBL1201862, “PubChem BioAssay data set” (2004)
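Five compound concentrations were applied to cells in 96-well plates for 48 hours; endpoints were derived by simple linear interpolation of the resulting dose-response curve. Here, GI50 denotes the concentration required for 50% inhibition of growth.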 Active and inactive are the calls of the source. Cut-off read from the data, not from the text of the source: active = GI50 up to about 1.1 µM and inactive = higher.

What was measured:
Test in all cases: NCI anticancer screen, dose series, 48 h
BT-549 = system: BT-549
CAKI-1 = system: CAKI-1
DU-145 = system: DU-145
HCC 2998 = system: HCC 2998
HCT-116 = system: HCT-116
HOP-62 = system: HOP-62
Hs-578T = system: Hs-578T
MCF7 = system: MCF7
MDA-MB-231 = system: MDA-MB-231
MDA-N = system: MDA-N
NCI-H23 = system: NCI-H23
NCI-H522 = system: NCI-H522
NCI/ADR-RES = system: NCI/ADR-RES
PC-3 = system: PC-3
SF-268 = system: SF-268
SF-539 = system: SF-539
SK-MEL-28 = system: SK-MEL-28
T47D = system: T47D

Measured: GI50

C=C(NC(=O)C(=C)NC(=O)c1ccc2c(n1)-c1coc(n1)C(=C)NC(=O)C(=C)NC(=O)c1nc(oc1C)C(=C)NC(=O)C(C(C)(C)O)NC(=O)C(=C)NC(=O)c1coc(n1)/C(=C/C)NC(=O)[C@H]([C@@H](C)O)NC(=O)c1csc-2n1)C(N)=O (stereo partly drawn)
inactive: BT-549 37.3 µM | CAKI-1 > 87.5 µM | DU-145 > 87.5 µM | HCC 2998 > 87.5 µM | HCT-116 > 87.5 µM | HOP-62 81.5 µM | Hs-578T > 87.5 µM | MCF7 > 87.5 µM | MDA-MB-231 > 87.5 µM | MDA-N > 87.5 µM | NCI-H23 > 87.5 µM | NCI-H522 > 87.5 µM | NCI/ADR-RES > 87.5 µM | PC-3 > 87.5 µM | SF-268 > 87.5 µM | SF-539 > 87.5 µM | SK-MEL-28 > 87.5 µM

COc1ccc(-c2csc3c2[N+]2(C)C=CC=C2C3N2CCCC2)cc1 (stereo not drawn)
inactive: BT-549 8.2 µM | CAKI-1 > 100 µM | HCT-116 33 µM | HOP-62 27.2 µM | Hs-578T 15.7 µM | MCF7 29 µM | MDA-MB-231 94 µM | MDA-N 7.6 µM | NCI-H23 10.6 µM | NCI-H522 2.43 µM | NCI/ADR-RES 17.3 µM | PC-3 23 µM | SF-268 22 µM | SF-539 17.7 µM | T47D 16.3 µM

C(=C\Nc1ccc(Oc2ccccc2)cc1)/C=N/c1ccc(Oc2ccccc2)cc1
inactive: BT-549 15.9 µM | CAKI-1 18.7 µM | DU-145 20.1 µM | HCC 2998 15.9 µM | HCT-116 17.4 µM | HOP-62 20.7 µM | Hs-578T 19.9 µM | MCF7 16.9 µM | MDA-MB-231 17.1 µM | MDA-N 16.2 µM | NCI-H23 22.2 µM | NCI-H522 20 µM | NCI/ADR-RES 16.9 µM | PC-3 15.1 µM | SF-268 21 µM | SF-539 16.4 µM | SK-MEL-28 16.6 µM

COc1cc(C)cc(OC)c1/C=C/C(=O)O
inactive: BT-549 > 100 µM | CAKI-1 > 100 µM | HCC 2998 > 100 µM | HCT-116 > 100 µM | HOP-62 > 100 µM | Hs-578T 24.8 µM | MDA-MB-231 > 100 µM | MDA-N > 100 µM | NCI-H23 > 100 µM | NCI-H522 > 100 µM | NCI/ADR-RES > 100 µM | PC-3 > 100 µM | SF-268 > 100 µM | SK-MEL-28 > 100 µM | T47D > 100 µM

CCCOC1OC(CS(=O)(=O)O)C(O)C(O)C1O (stereo not drawn)
inactive: BT-549 > 100 µM | CAKI-1 > 100 µM | DU-145 > 100 µM | HCC 2998 > 100 µM | HCT-116 > 100 µM | HOP-62 > 100 µM | Hs-578T > 100 µM | MCF7 > 100 µM | MDA-N > 100 µM | NCI-H23 > 100 µM | NCI/ADR-RES > 100 µM | PC-3 > 100 µM | SK-MEL-28 > 100 µM | T47D > 100 µM
